Source: US12582628B2, “Methods for treating breast cancer” (Olatec Therapeutics, Inc., priority 2019, dated 2026)
Read-outs that look alike come from different tables or passages of the source.

Columns and labels:
PD-L1 [1] = test: PD-L1 mRNA expression in IL-1α-stimulated E0771 cells; type: cell-based, murine; details: IL-1α 10 ng/mL, dapansutrile vs vehicle (FIG. 3E)
Description: (§1) Cell Lines. The mammary carcinoma cell lines 4T1, E0771, and MDA-468 were obtained from ATCC (Manassas, VA). Cells were cultured in DMEM supplemented with 10% FBS, 100 units/mL penicillin, 0.1 mg/ml streptomycin. Cells were maintained in a humidified 5% CO2 atmosphere at 37° C.
(§2) In vitro. Tumor cell lines were adhered overnight at a concentration of 200,000 per well. The following day human recombinant IL-1α or IL-1β (R&D Systems, Minneapolis, MN) were added with or without dapansutrile (OLT1177®) and incubated for 24 hours. Cells were then lysed using TRIzol reagent (Thermo Fisher Scientific, Waltham, MA).
(§3) Gene Expression. RNA was then isolated using Trizol (Thermo Fisher Scientific) and synthesized in cDNA using SuperScript III First-Strand (Thermo Fisher Scientific). Quantitative PCR (qPCR) was performed on cDNA using Power SYBR Green PCR master mix (Thermo Fisher Scientific) on Biorad CFX96 Real time system. Gene expression was assessed for Tslp, Tslpr, and Pdcd-11L1 mRNAs as indicated using the following primers: […]
In vitro analysis of the murine triple-negative breast cancer cell line E0771 was conducted to examine the effects of dapansutrile on PD-L1 expression levels following cell death signaling. IL-1α stimulation was used to simulate cell death signaling in the tumor-microenvironment. […]

4T1 TNBC = 4T1 TNBC orthotopic tumor model (tumor volume, survival); type: in vivo, mice (BALB/c)
Description: Tumor Model. Animal protocols were approved by the University of Colorado Health Sciences Center Animal Care and Use Committee. Female BALB/c mice, 6-8 weeks old (The Jackson Laboratory), were fed standard or dapansutrile (OLT1177®) diet (4), which was started on the day of 4T1 injection. 4T1 cells (2×10^5) were injected orthotopically into the mammary fat pad. Mice treated with dapansutrile were fed ad libidum with food pellets containing 7.5 g/kg dapansutrile, which started on the day of the 4T1 injection and continued for 15 days. Mice typically consume about 4 g of food per day, resulting in an approximate daily dose of 0 mg/kg/day for control groups and 1,000 mg/kg/day for the treatment groups. […] Control (“vehicle”) mice were fed with control food pellets without dapansutrile. Mice were sacrificed following 15 days after 4T1 injection.
(§4) Anti-PD-1 Combination Therapy. 4T1 cells were injected as described. After instillation of 4T1 cells, mice were started on dapansutrile (OLT1177®) diet or continued on standard diet as described and at day seven a neutralizing antibody against PD-1 (200 μg/mouse; BioXCell, West Lebanon, NH) was injected peritoneally. Mice were sacrificed following 15 days from the […] instillation.
as §4, with “Anti-IL-1α” for “Anti-PD-1”, “every three days” for “at day seven”, “anti-IL-1α” for “PD-1”, “XBioTech, Austin, TX)” for “BioXCell, West Lebanon, NH)”
4T1 TNBC mice were generated and fed a standard diet or a dapansutrile diet for 15 days. Tumors were measured on indicated days to generate a growth curve (FIG. 1C). Final tumor volume was taken following resection of the tumors (FIG. 1B).
To further assess the roles of IL-1α and IL-1β in driving 4T1 tumor progression, inventors treated mice with anti-IL-1α (200 μg/mouse), dapansutrile diet, and a combination of both. 4T1 TNBC mice were generated and fed a standard diet or a dapansutrile diet for 15 days. Mice were injected with anti-IL1α every 3 days as indicated. Subsequently, tumor volume was analyzed.
4T1 TNBC mice were generated and fed a standard diet or a dapansutrile diet for 15 days. Mice receiving a combination therapy were injected with anti-PD-1 on day 7 as indicated (FIG. 3A).

TSLPR [2] = test: Gene expression (qPCR) in primary 4T1 tumors: TSLPR; type: in vivo, mice; details: dapansutrile diet vs vehicle (FIG. 2E)
Description: as §3
(§5) Tumor Model. Animal protocols were approved by the University of Colorado Health Sciences Center Animal Care and Use Committee. Female BALB/c mice, 6-8 weeks old (The Jackson Laboratory), were fed standard or dapansutrile (OLT1177®) diet (4), which was started on the day of 4T1 injection. 4T1 cells (2×10^5) were injected orthotopically into the mammary fat pad. […]
(§6) Previous studies on the tumor-myeloid cell interactions in triple-negative breast cancer indicate that tumor-derived IL-1α promotes infiltrating myeloid cells to secrete TSLP (thymic stromal lymphopoietin), which in turn is critical for tumor progression at both primary and distant metastatic sites (15). To further evaluate the effects of blocking NLRP3 in 4T1 tumor progression, inventors quantified gene expression of TSLP and its associated receptor TSLPR in primary 4T1 tumors as measured by relative mRNA expression. […]

PD-L1 [3] = test: Gene expression (qPCR) in 4T1 tumors: PD-L1; type: in vivo, mice; details: dapansutrile diet vs standard diet (FIG. 3D)
Description: as §3
Tumor Model. Animal protocols were approved by the University of Colorado Health Sciences Center Animal Care and Use Committee. Female BALB/c mice, 6-8 weeks old (The Jackson Laboratory), were fed standard or dapansutrile (OLT1177®) diet (4), which was started on the day of 4T1 injection. 4T1 cells (2×10^5) were injected orthotopically into the mammary fat pad. Mice treated with dapansutrile were fed ad libidum with food pellets containing 7.5 g/kg dapansutrile, which started on the day of the 4T1 injection and continued for 15 days. Mice typically consume about 4 g of food per day, resulting in an approximate daily dose of 0 mg/kg/day for control groups and 1,000 mg/kg/day for the treatment groups. […] Control (“vehicle”) mice were fed with control food pellets without dapansutrile. Mice were sacrificed following 15 days after 4T1 injection. […]

[4] = mice, 7.5 g/kg dapansutrile in food (about 1,000 mg/kg/day); nearly the same as human level; cited from earlier work
IFNγ = test: Splenocyte cytokine secretion (ELISA): IFNγ; type: in vivo; details: splenocytes of 4T1 tumor-bearing mice, LPS 10 μg/mL, 72 hours, vs vehicle (FIG. 4C)
Description: (§7) Splenocyte Cytokine Secretion. 4T1 cells were injected as described. Spleens from tumor-bearing mice were processed for cell culture through mechanical dissociation. Cells suspended in RPMI supplemented with 10% FBS, 100 units/mL penicillin, 0.1 mg/ml streptomycin and were plated at 5.0e^5 and stimulated with 10 μg/mL LPS. After 72 hours, supernatants were removed and cytokines were measured via ELISA (R&D Systems, Minneapolis, MN).
(§8) In this Example, 4T1 TNBC mice were generated and fed a standard diet or a dapansutrile diet for 15 days.

TSLP [5] = test: TSLP mRNA expression in IL-1α-stimulated MDA-468 cells; type: cell-based, human; details: IL-1α 20 ng/mL, dapansutrile 10 μM, 24 hours, vs control (FIG. 2F)
Description: as §1, §2
(§9) Gene Expression. […] Quantitative PCR (qPCR) was performed on cDNA using Power SYBR Green PCR master mix (Thermo Fisher Scientific) on Biorad CFX96 Real time system. Gene expression was assessed for Tslp, Tslpr, and Pdcd-11L1 mRNAs as indicated using the following primers: […]
as §6

[6] = humans treated orally at 1000 mg/day; cited from earlier work
TSLP [7] = test: Gene expression (qPCR) in primary 4T1 tumors: TSLP; type: in vivo, mice; details: dapansutrile diet vs vehicle (FIG. 2D)
Description: as §3, §5, §6

IL-22 = test: Splenocyte cytokine secretion (ELISA): IL-22; type: in vivo; details: splenocytes of 4T1 tumor-bearing mice, LPS 10 μg/mL, 72 hours, vs vehicle (FIG. 4B)
Description: as §7, §8

NLRP3 inflammasome = NLRP3 inflammasome (Homo sapiens, UniProt Q96P20); details: cited from earlier work
TSLPR [8] = test: TSLPR mRNA expression in IL-1α-stimulated MDA-468 cells; type: cell-based, human; details: IL-1α 20 ng/mL, dapansutrile 10 μM, 24 hours, vs control (FIG. 2G)
Description: as §1, §2, §9, §6

[9] = orally administered to healthy subjects; cited from earlier work

NLRP3 inflammasome, sequence (Q96P20 whole entry): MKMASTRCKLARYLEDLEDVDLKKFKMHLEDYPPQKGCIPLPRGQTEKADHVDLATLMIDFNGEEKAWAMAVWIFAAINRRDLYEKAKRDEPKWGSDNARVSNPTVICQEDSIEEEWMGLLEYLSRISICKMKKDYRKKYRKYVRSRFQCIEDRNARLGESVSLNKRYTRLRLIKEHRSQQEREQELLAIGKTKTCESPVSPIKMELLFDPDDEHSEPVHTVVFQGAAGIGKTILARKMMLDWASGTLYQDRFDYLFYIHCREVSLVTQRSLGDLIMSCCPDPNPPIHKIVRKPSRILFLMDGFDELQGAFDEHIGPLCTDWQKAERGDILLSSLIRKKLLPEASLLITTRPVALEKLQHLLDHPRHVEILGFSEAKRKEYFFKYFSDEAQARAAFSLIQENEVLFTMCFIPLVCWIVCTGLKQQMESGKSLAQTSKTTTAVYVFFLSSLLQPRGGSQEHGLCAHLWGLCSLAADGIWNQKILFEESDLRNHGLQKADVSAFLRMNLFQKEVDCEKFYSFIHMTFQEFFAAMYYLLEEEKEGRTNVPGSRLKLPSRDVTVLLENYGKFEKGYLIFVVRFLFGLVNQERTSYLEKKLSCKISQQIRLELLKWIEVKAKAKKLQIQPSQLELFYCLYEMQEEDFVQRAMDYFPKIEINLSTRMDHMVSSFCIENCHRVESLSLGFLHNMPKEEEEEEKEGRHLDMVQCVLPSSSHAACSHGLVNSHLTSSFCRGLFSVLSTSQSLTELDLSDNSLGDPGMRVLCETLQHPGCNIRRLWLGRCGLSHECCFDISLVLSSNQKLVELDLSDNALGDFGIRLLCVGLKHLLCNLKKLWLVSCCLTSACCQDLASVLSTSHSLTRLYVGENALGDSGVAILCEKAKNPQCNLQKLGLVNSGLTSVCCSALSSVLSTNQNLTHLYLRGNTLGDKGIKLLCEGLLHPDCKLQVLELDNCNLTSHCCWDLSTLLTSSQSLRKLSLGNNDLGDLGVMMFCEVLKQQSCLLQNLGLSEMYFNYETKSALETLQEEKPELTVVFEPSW

In the case of `CS(=O)(=O)CCC#N` [dapansutrile, 3-methanesulfonyl-propionitrile], the “PD-L1 expression (relative mRNA)” value (PD-L1 [1]) is reported as “markedly lower”, the “mice surviving beyond 30 days” value (4T1 TNBC; Example 1, 4T1 TNBC mice on dapansutrile diet) is reported as “half” and the tumor volume (4T1 TNBC; Example 1, 4T1 TNBC mice, dapansutrile diet 15 days vs standard diet, after resection (FIG. 1B)) is reported as “significantly decreased tumor volume”. The survival rates (4T1 TNBC; Example 1, 4T1 TNBC mice, dapansutrile diet vs standard diet (FIG. 1D, n=10)) was “significantly higher survival rates”, the tumor volumes (4T1 TNBC; Example 2, 4T1 TNBC mice, 15 days, dapansutrile diet and/or anti-IL-1α 200 μg/mouse every 3 days, vs vehicle (FIGS. 2B, 2C)) was “significantly reduced tumor volumes” and the tumor volume (4T1 TNBC; Example 3, 4T1 TNBC mice, day 15 after resection, dapansutrile diet and/or anti-PD-1 200 μg/mouse on day 7, vs vehicle (FIG. 3B)) was “significant tumor reduction”. The “TSLPR expression (relative mRNA)” value (TSLPR [2]) was “significantly lower”, the “PD-L1 gene expression (relative mRNA)” value (PD-L1 [3]) was “significantly less” and the blood level [4] was ~40000 ng/mL. For the same compound, the IFNγ levels (IFNγ) was “increased”, the “TSLP expression (relative mRNA)” value (TSLP [5]) was “significantly lower” and the blood level [6] was 40000 ng/mL. For the same compound, the “TSLP expression (relative mRNA)” value (TSLP [7]) was “significantly lower”, the IL-22 levels (IL-22) was “significantly reduced IL-22 levels” and the NLRP3 inflammasome inhibition (NLRP3 inflammasome) was “selectively inhibit”. The “TSLPR expression (relative mRNA)” value (TSLPR [8]) was “significantly lower” and the safety [9] was “safe”.
